The text below walks through data of US10617671B2, “Use of NK-1 receptor antagonist serlopitant in pruritus” (Menlo Therapeutics Inc., priority 2013, dated 2020).

Data set [1] concerns patients with liver and kidney disease. The note with it: cited from earlier work.
Data set [2] can be described thus: In vitro skin permeation, Franz diffusion cell. It counts as in vitro ADME. The note with it: topical formulations B and C, LC-MS/MS, human skin, 37° C. As for the experimental part:
In vitro skin permeation of serlopitant in topical formulations A-D was evaluated using a Franz diffusion cell. FIG. 2 illustrates a Franz diffusion cell. A Franz diffusion cell having a circular permeation area of 4.15 cm^2 and a receptor chamber volume of 19 mL was set up with a thermo-regulated outer water jacket to maintain the temperature at 37° C. The receptor chamber was filled with 19 mL 1×PBS (pH 7.5) containing 10% ethanol and 1% Tween® 80.
Human skin was pretreated to remove all subcutaneous fat and was cleaned with 70% ethanol before use. The skin was visually inspected to ensure that it was free of any surface irregularity or small holes and was equally divided into four pieces. The skin was then mounted onto the receptor chamber with the stratum corneum side facing up. About 100 mg of topical formulation A, B, C or D was applied to the skin (actual weight: A, 103.8 mg; B, 101.3 mg; C, 103.2 mg; and D, 103.8 mg), which was then covered with parafilm to avoid evaporation. […]
All samples were processed by solid-phase extraction (SPE) before LC-MS/MS analysis. […] Serlopitant concentrations in samples resulting from formulations A-D were determined by comparison to the standard. Serlopitant was not detected in samples resulting from topical formulations A and D, as expected. […] After an initial lag, serlopitant was detected by LC-MS/MS in the receptor chamber at 6 hours.

The nature of data set [3]: Solubility of Compound 1 in solvents. It counts as physicochemical. The source says: S-BTBA ((S)-1-[3,5-bis(trifluoromethyl)] phenylethanol)) (12) is reacted with trichloroacetonitrile (Sigma-Aldrich) in the presence of base 1,8-diazabicycloundec-7-ene (DBU) to produce imidate (13). HBF4 is used to catalyze the reaction of (11) with (13) to yield ether (14). Treatment with allylamine and bis-propylsulfonate cyclizes (14) to allylamine-protected pyrrolidine (15). Removal of the allyl protecting group with thiosalicylic acid and 1,4-bis(diphenylphosphino)butane (dppb), followed by […] (Pd2(dba)3) and isolation with acetic acid gives crystalline (16). Finally, (16) is reacted with 1,3-cyclopentanedione (Sigma-Aldrich) in isopropyl alcohol to give Compound 1. Compound 1 is a white to off-white powder.

Data set [4] deals with CYP-3A4 mRNA. The note with it: three individual preparations of human hepatocytes; cited from earlier work.
The target of data set [5] is human NK-1 receptor (Homo sapiens, UniProt P25103). The note with it: cited from earlier work.
Chain of human NK-1 receptor (P25103 whole entry): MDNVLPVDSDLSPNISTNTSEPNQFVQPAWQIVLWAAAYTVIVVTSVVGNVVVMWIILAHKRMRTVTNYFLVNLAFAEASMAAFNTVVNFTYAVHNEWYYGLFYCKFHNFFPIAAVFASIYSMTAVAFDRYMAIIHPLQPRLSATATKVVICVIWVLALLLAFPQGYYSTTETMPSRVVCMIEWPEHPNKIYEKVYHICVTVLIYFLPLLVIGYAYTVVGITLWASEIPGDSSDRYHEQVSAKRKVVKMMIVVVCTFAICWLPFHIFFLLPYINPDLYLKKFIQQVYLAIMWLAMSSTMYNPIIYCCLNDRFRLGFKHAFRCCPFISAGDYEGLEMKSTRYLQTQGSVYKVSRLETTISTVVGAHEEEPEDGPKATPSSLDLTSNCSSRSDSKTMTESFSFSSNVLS
Data set [6] relates to patients with OAB. The note with it: cited from earlier work.
Data set [7] in a line: Solubility test in Franz cell receptor solution. The class given is physicochemical.
The subject of data set [8] is cloned human NK-2 and NK-3 receptors. The note with it: CHO cells stably expressing the respective receptors; cited from earlier work.
For data set [9] the following is noted: itch; cited from earlier work.
The subject of data set [10] is patients with chronic pruritus. On the set-up: patients with considerable reduction in itch intensity: unit not given here. The note with it: 80 mg daily for 3 to 13 days, cited from earlier work.
The target in data set [11] is CYP3A4 (Homo sapiens, UniProt P08684). The note with it: cited from earlier work.
Chain of CYP3A4 (P08684 whole entry): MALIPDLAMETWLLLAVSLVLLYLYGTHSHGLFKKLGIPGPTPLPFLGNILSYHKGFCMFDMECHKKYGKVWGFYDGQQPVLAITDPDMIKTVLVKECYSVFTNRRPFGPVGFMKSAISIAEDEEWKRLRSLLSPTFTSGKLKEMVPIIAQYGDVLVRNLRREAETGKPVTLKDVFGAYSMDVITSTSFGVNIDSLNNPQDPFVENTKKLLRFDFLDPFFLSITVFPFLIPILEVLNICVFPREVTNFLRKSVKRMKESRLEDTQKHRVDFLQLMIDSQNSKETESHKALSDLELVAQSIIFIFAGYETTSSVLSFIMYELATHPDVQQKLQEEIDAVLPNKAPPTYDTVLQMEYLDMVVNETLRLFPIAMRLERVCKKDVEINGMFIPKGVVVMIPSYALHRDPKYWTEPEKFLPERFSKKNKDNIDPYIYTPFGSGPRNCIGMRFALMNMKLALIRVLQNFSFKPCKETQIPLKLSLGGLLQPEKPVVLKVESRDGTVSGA
The target in data set [12] is CYP2C9 (Homo sapiens, UniProt P11712). The note with it: cited from earlier work.
Chain of CYP2C9 (P11712 whole entry): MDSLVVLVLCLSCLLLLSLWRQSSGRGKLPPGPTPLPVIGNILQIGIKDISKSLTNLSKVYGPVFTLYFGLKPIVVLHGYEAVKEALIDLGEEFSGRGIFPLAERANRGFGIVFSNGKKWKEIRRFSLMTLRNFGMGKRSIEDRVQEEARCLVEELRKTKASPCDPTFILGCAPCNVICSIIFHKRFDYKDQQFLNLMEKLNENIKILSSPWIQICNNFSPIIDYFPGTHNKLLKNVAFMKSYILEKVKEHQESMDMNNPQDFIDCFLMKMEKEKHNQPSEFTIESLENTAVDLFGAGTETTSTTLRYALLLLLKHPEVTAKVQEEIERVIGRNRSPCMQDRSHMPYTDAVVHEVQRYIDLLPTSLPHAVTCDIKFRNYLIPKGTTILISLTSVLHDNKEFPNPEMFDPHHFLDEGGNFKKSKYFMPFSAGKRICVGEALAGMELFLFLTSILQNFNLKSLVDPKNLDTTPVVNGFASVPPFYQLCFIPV
For data set [13], the system named is patients with Sézary syndrome. The note with it: oral, 80 mg daily, three patients with Sézary syndrome; cited from earlier work.
The subject of data set [14] is patients suffering from chronic pruritus. The note with it: single topical dose, 5% in a lipophilic vehicle; cited from earlier work.
The test system of data set [15] is NCNga mice. The note with it: picrylchloride-induced dermatitis; cited from earlier work.

For `C=CCN1CC[C@]23c4c5ccc(O)c4O[C@H]2C(=O)CC[C@@]3(O)[C@H]1C5` [naloxone], in [1], the “effect on pruritus symptoms” value is on record as “decreased pruritus symptoms”; the side effects result is “significant central nervous and gastrointestinal side effects occurred”.

In the case of `C=C1CC[C@@]2(O)[C@H]3Cc4ccc(O)c5c4[C@@]2(CCN3CC2CC2)[C@H]1O5` [nalmefene], in [1], the “effect on pruritus symptoms” value is on record as “decreased pruritus symptoms”; the side effects entry is “significant central nervous and gastrointestinal side effects occurred”.

As usually defined, the IC50 is the point on the concentration scale where inhibition reaches its midpoint. For orientation: Kd means the equilibrium constant for the complex coming apart. For the molecule `C[C@@H](O[C@H]1CC[C@@H]2CN(C3=CC(=O)CC3)C[C@H]2[C@@H]1c1ccc(F)cc1)c1cc(C(F)(F)F)cc(C(F)(F)F)c1` [Compound 1, 3-[(3aR,4R,5S,7aS)-5-[(1R)-1-[3,5-bis(trifluoromethyl)phenyl]ethoxy]-4-(4-fluorophenyl)-1,3,3a,4,5,6,7,7a-octahydroisoindol-2-yl]cyclopent-2-en-1-one], the “time at which serlopitant was detected in the receptor chamber after initial lag” value in data set [2] is 6 h. For the same molecule, the solubility entry in data set [3] (acetonitrile) was “sparingly soluble”; in data set [3] (ethanol), “soluble”; in data set [3] (ethyl acetate), “sparingly soluble”; in data set [3] (isopropyl acetate) it was “slightly soluble”; in [3] (isopropyl alcohol), “sparingly soluble”; in data set [3] (methanol) it was “freely soluble”. Further, in data set [3] (water), the solubility entry is given as “insoluble”. Besides, the “induction of CYP-3A4 mRNA” value in data set [4] was “did not significantly induce”. Further, the concentration for half-maximal inhibition (IC50) in [5] (read-out: IC50, displacement of substance P binding) is 61 pM. Moreover, the dissociation constant Kd in data set [5] (read-out: Kd, binding to the human NK-1 receptor) is 46 pM. The “number of daily micturitions compared with placebo” value in data set [6] (0.25 and 4 mg daily) is listed as “significantly reduced”. The “adverse experience of dry mouth” value in data set [6] is “not associated”. For the same molecule, the “dose response relationship with micturition frequency” value in [6] is “did not show a dose response relationship”. In addition, in data set [6], the “drug-related serious adverse experiences” value was “no drug-related serious adverse experiences”. The “secondary efficacy end points: urinary urgency, urge incontinence and total incontinence” value in [6] is reported as “did not significantly influence”. For the same molecule, the tolerability result in data set [6] is given as “generally well tolerated”. Also, the “solubility in receptor solution” value in [7] (0.5, 5 and 50 ug/mL in 1xPBS (pH 7.5) with 10% ethanol and 1% Tween 80, 1 hour at 37° C.) is listed as “remained soluble”. In addition, the “solubility change if Tween 80 was not used” value in data set [7] (1xPBS (pH 7.5), 37° C.) is given as “decreased significantly”. Besides, the “solubility change if ethanol was not used” value in [7] (1xPBS (pH 7.5), 37° C.) is “decreased slightly”. Further, the “selectivity for NK-1 over NK-2 and NK-3 receptors” value in data set [8] was > 39,000 fold.

In the case of `NCC1(CC(=O)O)CCCCC1` [gabapentin], the onset of action in data set [9] is reported as 5-6 weeks.

On to `C[C@@H](O[C@H]1OCCN(Cc2n[nH]c(=O)[nH]2)[C@H]1c1ccc(F)cc1)c1cc(C(F)(F)F)cc(C(F)(F)F)c1` [aprepitant], for which the “effect on chronic pruritus” value in data set [10] (atopic diathesis, prurigo nodularis) is given as “significantly decreased chronic pruritus”. In [10] (twenty patients), the “patients with considerable reduction in itch intensity” value is “Eighty”. Also, the “inhibition and induction of CYP3A4” value in [11] is on record as “moderate inhibitor as well as an inducer”. In addition, in [12], the “inhibition and induction of CYP2C9” value is on record as “moderate inhibitor as well as an inducer”. Moreover, the treatment of pruritus result in [13] is “had utility in treating pruritus”. In [14], the “absorption into the skin” value is “absorbed into the skin” and the “effect on patients' itch” value is recorded as “not alleviated”.

In the case of `Cc1ccc(O)c([C@H](CCN(C(C)C)C(C)C)c2ccccc2)c1` [tolterodine, reference compound], in [6], the “adverse experience of dry mouth” value is “common”, the “efficacy compared with placebo” value was “statistically significantly more effective” and the “efficacy compared with serlopitant at all efficacy end points” value was “numerically more effective”.

On to `O=C1CC[C@@]2(O)[C@H]3Cc4ccc(O)c5c4[C@@]2(CCN3CC2CC2)[C@H]1O5` [naltrexone], for which, in data set [1], the “effect on pruritus symptoms” value is on record as “decreased pruritus symptoms”; the side effects result was “significant central nervous and gastrointestinal side effects occurred”.

With `CN(CCc1cc(C(F)(F)F)cc(C(F)(F)F)c1)C(=O)[C@H](c1ccccc1)N1CCN(CC2CC2)CC1` [BIIF 1149 CL], the scratching behavior entry in data set [15] is listed as “inhibited scratching behavior”.
